The text below walks through data of ChEMBL document CHEMBL6109059, “Synthesis and biofilm inhibitory activity of cyclic dinucleotide analogues prepared with macrocyclic ribose-phosphate skeleton” (2025).

Each structure is given as a SMILES string. The source made the active and inactive calls. No cut-off for these calls is given here.

For assay [1], the system named is Escherichia coli. Description: Inhibition of biofilm formation in Escherichia coli DH5alpha at 156 uM measured after 24 hrs by crystal violet staining based assay relative to control. Particulars: DH5-alpha. It is filed as functional.
The test system of assay [2] is Staphylococcus aureus. Description: Inhibition of biofilm formation in Staphylococcus aureus NBRC13276 at 156 uM measured after 24 hrs by crystal violet staining based assay relative to control. It is filed as functional.
In assay [3] the test system is Pseudomonas aeruginosa. Description: Inhibition of biofilm formation in Pseudomonas aeruginosa NBRC13275 at 156 uM measured after 6 hrs by crystal violet staining based assay relative to control. It is filed as functional.
Assay [4] deals with Escherichia coli. Description: Potency index, ratio of compound effect to c-di-GMP effect on inhibition of biofilm formation in Escherichia coli DH5alpha. It is filed as functional.
In assay [5] the test system is Escherichia coli. Description: Antibacterial activity against Escherichia coli DH5alpha. It is filed as functional, organism-based.
Assay [6] concerns Staphylococcus aureus. Description: Antibacterial activity against Staphylococcus aureus NBRC13276. It is filed as functional, organism-based.
Assay [7] relates to Pseudomonas aeruginosa. Kind of assay: Antibacterial activity against Pseudomonas aeruginosa NBRC13275. It is filed as functional, organism-based.

For `O=P1(O)OC[C@H]2O[C@@H](n3cc(-c4cc(F)cc(F)c4)nn3)[C@H](O)[C@@H]2OP(=O)(O)OC[C@H]2O[C@@H](n3cc(-c4cc(F)cc(F)c4)nn3)[C@H](O)[C@@H]2O1`, the inhibition at 156 µM in the assay with Escherichia coli [1] came out at 45.8%; in the assay on Staphylococcus aureus [2], 8.24%; in the assay on Pseudomonas aeruginosa [3] it was 47.3%. For the same molecule, in the assay on Escherichia coli [4], the Ratio amounted to 2. Also, the result with Escherichia coli [5], in the assay with Staphylococcus aureus [6] and in the assay with Pseudomonas aeruginosa [7] was inactive.

As for `O=P1(O)OC[C@H]2O[C@@H](n3cc(-c4ccc(Br)cc4)nn3)[C@H](O)[C@@H]2OP(=O)(O)OC[C@H]2O[C@@H](n3cc(-c4ccc(Br)cc4)nn3)[C@H](O)[C@@H]2O1`, the figures for the inhibition at 156 µM in the assay with Escherichia coli [1], with Staphylococcus aureus [2] and in the assay on Pseudomonas aeruginosa [3] were 35.1%, 21.2% and 46%, respectively. Also, in the assay on Escherichia coli [4], the Ratio is 2. Further, the result in the assay on Escherichia coli [5], in the assay on Staphylococcus aureus [6] and in the assay on Pseudomonas aeruginosa [7] was inactive.

`COc1ccc(-c2cn([C@@H]3O[C@@H]4COP(=O)(O)O[C@H]5[C@@H](O)[C@H](n6cc(-c7ccc(OC)cc7)nn6)O[C@@H]5COP(=O)(O)O[C@H]4[C@H]3O)nn2)cc1`: the inhibition at 156 µM came out at 36.7% with Escherichia coli [1], 19% with Staphylococcus aureus [2] and 53.3% in the assay on Pseudomonas aeruginosa [3]. The Ratio in the assay with Escherichia coli [4] is on record as 2. Also, the outcome in the assay with Escherichia coli [5], in the assay on Staphylococcus aureus [6] and with Pseudomonas aeruginosa [7] was inactive.

As to `O=P1(O)OC[C@H]2O[C@@H](n3cc(-c4ccccc4)nn3)[C@H](O)[C@@H]2OP(=O)(O)OC[C@H]2O[C@@H](n3cc(-c4ccccc4)nn3)[C@H](O)[C@@H]2O1`, the values for the inhibition at 156 µM in the assay with Escherichia coli [1], in the assay with Staphylococcus aureus [2] and with Pseudomonas aeruginosa [3] were 39.9%, 24.1% and 44.2%, respectively. In the assay with Escherichia coli [4], the Ratio amounted to 2. For the same molecule, the outcome in the assay on Escherichia coli [5], with Staphylococcus aureus [6] and with Pseudomonas aeruginosa [7] was inactive.

`O=P1(O)OC[C@H]2O[C@@H](n3cc(-c4ccc(F)cc4)nn3)[C@H](O)[C@@H]2OP(=O)(O)OC[C@H]2O[C@@H](n3cc(-c4ccc(F)cc4)nn3)[C@H](O)[C@@H]2O1`: the inhibition at 156 µM was 25.1% in the assay with Escherichia coli [1], 4.86% with Staphylococcus aureus [2] and 57.9% with Pseudomonas aeruginosa [3]. Further, the Ratio in the assay with Escherichia coli [4] was found to be 2. Also, the outcome in the assay with Escherichia coli [5], in the assay on Staphylococcus aureus [6] and in the assay with Pseudomonas aeruginosa [7] was inactive.

With `O=P1(O)OC[C@H]2O[C@@H](n3cc(-c4ccc(F)c(F)c4)nn3)[C@H](O)[C@@H]2OP(=O)(O)OC[C@H]2O[C@@H](n3cc(-c4ccc(F)c(F)c4)nn3)[C@H](O)[C@@H]2O1`, the inhibition at 156 µM in the assay with Escherichia coli [1] turned out to be 24.4%; in the assay with Staphylococcus aureus [2], 15.9%; with Pseudomonas aeruginosa [3], 51.4%. For the same molecule, in the assay on Escherichia coli [4], the Ratio is reported as 2. For the same molecule, the outcome in the assay on Escherichia coli [5], in the assay with Staphylococcus aureus [6] and in the assay on Pseudomonas aeruginosa [7] was inactive.

With `O=P1(O)OC[C@H]2O[C@@H](n3cc(-c4cccc(F)c4)nn3)[C@H](O)[C@@H]2OP(=O)(O)OC[C@H]2O[C@@H](n3cc(-c4cccc(F)c4)nn3)[C@H](O)[C@@H]2O1`, the inhibition at 156 µM was 30.6% with Escherichia coli [1], 7.15% with Staphylococcus aureus [2] and 57.7% in the assay on Pseudomonas aeruginosa [3]. Besides, the Ratio in the assay on Escherichia coli [4] is on record as 2. For the same molecule, the result in the assay with Escherichia coli [5], in the assay on Staphylococcus aureus [6] and in the assay on Pseudomonas aeruginosa [7] was inactive.

In the case of `O=P1(O)OC[C@H]2O[C@@H](n3cc(-c4ccncc4)nn3)[C@H](O)[C@@H]2OP(=O)(O)OC[C@H]2O[C@@H](n3cc(-c4ccncc4)nn3)[C@H](O)[C@@H]2O1`, the inhibition at 156 µM in the assay with Escherichia coli [1] was 34.2%; with Staphylococcus aureus [2], 39.6%; with Pseudomonas aeruginosa [3] it was 21.9%. Further, in the assay with Escherichia coli [4], the Ratio is on record as 2. Also, the result in the assay on Escherichia coli [5], with Staphylococcus aureus [6] and in the assay with Pseudomonas aeruginosa [7] was inactive.

With `Nc1nc2c(ncn2[C@@H]2O[C@@H]3COP(=O)(O)O[C@H]4[C@@H](O)[C@H](n5cnc6c(=O)[nH]c(N)nc65)O[C@@H]4COP(=O)(O)O[C@H]3[C@H]2O)c(=O)[nH]1`, the inhibition at 156 µM in the assay with Escherichia coli [1] turned out to be 12.5%; with Pseudomonas aeruginosa [3], 52.9%.

Turning to `O=P1(O)OC[C@H]2O[C@@H](n3cc(-c4ccccc4F)nn3)[C@H](O)[C@@H]2OP(=O)(O)OC[C@H]2O[C@@H](n3cc(-c4ccccc4F)nn3)[C@H](O)[C@@H]2O1`, the inhibition at 156 µM in the assay with Escherichia coli [1] was found to be 39.1%; in the assay with Staphylococcus aureus [2], 16%; in the assay with Pseudomonas aeruginosa [3], 59.4%. For the same molecule, the Ratio in the assay on Escherichia coli [4] was found to be 2. Further, the result with Escherichia coli [5], with Staphylococcus aureus [6] and in the assay with Pseudomonas aeruginosa [7] was inactive.

One may read the inhibition as the drop in the measured response relative to a control, in per cent. Lower therefore signals a weak effect.
